According to patent US20220411397A1, “ANALOGUES OF N-ACYL-HOMOSERINE LACTONES AND PHARMACEUTICAL COMPOSITION COMPRISING SAME” (SORBONNE UNIVERSITE, priority 2019, published 2022):

Experiments:
Raw 264.7 murine cells = assay: Stimulation of Raw 264.7 murine cells by IFN-γ/LPS, IL-6 secretion (ELISA); assay type: cell-based; conditions: for activity on IFN-γ/LPS-stimulated Raw 264.7 cells compared with natural 3-oxo-C12-HSL: 1-50 μM range
Description: 1.1.2. The Raw 264.7 Cell Line • The Raw 264.7 cell line consists of murine cells of macrophage type derived from cell line transformed by the virus of the Abelson leukaemia and providing from BALB/c mice. This cell line is very often used as a model of macrophages in vitro. The Raw 264.7 cells are capable of a phagocytosis and a pinocytosis, can kill the target cells by antibody-dependent cytotoxicity, and secrete a wide range of inflammatory cytokines as well as nitric oxide (NO). In addition, the Raw 264.7 cells are a very convenient cell line: the cells grow rapidly, appreciate the small diameter wells, and should be used before confluence. These conditions make it an advantageous line for the compound screening.
The cells were used between the passages 13 and 26. • The Raw 264.7 cells used are from the ATCC bank. They were grown in DMEM supplemented with 10% heat-inactivated foetal calf serum and 1% L-glutamine to 200 mM, and maintained at 37° C. with a 5% CO2/air atmosphere. The medium was changed every two days.
1.2.2. Stimulation of Raw 264.7 with LIPS and IFN-γ • Raw 264.7 cells were seeded in 12-well plates at 75,000 cells/well, or 24-well plates at 40,000 cells/well, to reach 80-90% confluence after 3 days of culture. […] The cells were harvested by scraping in 100 μL of PBS 1×/well and stored at −80° C. before the quantification of the total protein. […]
1.2.5. Quantification of the Murine Cytokines • The levels of IL-6 murine cytokines produced by cells were determined in cell supernatants or lysates using the commercially available “BD OptEIA Mouse IL-6 ELISA Set” from BD Biosciences (San Jose, Calif., USA, ref. 555240). All the ELISA kits were used according to the instructions of the manufacturer. • The cytokine rates were first normalized to the protein content determined in the corresponding cell lysates. […]

Caco-2/TC7 cells = assay: Stimulation of Caco-2/TC7 cells by IL-1β, IL-8 secretion (ELISA); assay type: cell-based, human
Description: 1.1.1. The Caco-2/TC7 Cell Line • The Caco-2 cell line is derived from a human colon adenocarcinoma and represents a cell culture model of enterocytes lining the epithelium of the small intestinal. […] During the exponential growth phase (from seeding to confluence), the cells remain undifferentiated. At confluence, they can spontaneously (in the absence of differentiation inducers) differentiate and progressively polarize. The differentiation process, which is a growth-related mechanism, is maximal at the end of confluence (stationary phase of the growth curve). • The cells develop a brush border at the apical pole containing microvilli and with characteristic enterocytic enzymes, such as hydrolases. • In accordance with the published literature, the Caco-2/TC7 cells in our experiments were seeded at 10^5 cells/well (equivalent to 10-12×10^3 cells/cm^2) in 6-well plastic culture plates. The cells were maintained in a glucose-rich medium (high glucose in the DMEM GlutaMAX medium 4.5 g/I glucose) supplemented with 20% heat-inactivated foetal calf serum, 1% nonessential amino acids NEAA, and 1% penicillin streptomycin. The cells were grown at 37° C. in a 10% CO2/air atmosphere. The medium was changed every day. Under these conditions, the cells were confluent on day 6. On day 17, the cells were serum-starved, and were used on day 18.
1.2.1. Stimulation of Caco-2/TC7 with Cytokines • The Caco-2/TC7 cells were seeded in 6-well plates at 100,000 cells/well and grown for 18 days. On day 17, the cells were serum-starved, which means that the cell medium was replaced with a foetal calf serum-free medium, and used on day 18. • The stimulation medium was composed of a medium referred to as “starvation medium”, i.e. without foetal calf serum (DMEM GlutaMAX, 1% NEAA, 1% penicillin-streptomycin) with 100 μM of 2-HQ. The cells were incubated for 18 h at 37° C. with 2 ml of stimulation medium containing 0.1% DMSO (negative control) or stimulation medium containing the compounds tested at desired concentrations, with or without proinflammatory cytokines to induce an inflammation. To induce the inflammation, either the IL-1β at 25 ng/ml or the combination of TNF-α and IFN-γ at 50 ng/ml each were used. After 18 h, the supernatants were collected and stored at −80° C. before analysis by ELISA test. The cells were washed with 1 ml of PBS 1×/well, and lysed in 100 μl of PBS 1× containing 1% Triton X-100. The cells were harvested by scraping and stored at −80° C. before the quantification of the protein. The dosing of the LDH was performed immediately before freezing. • All the experiments on the cells were performed in triplicates.
1.2.4. Quantification of the Human Cytokines by ELISA • The levels of the proinflammatory cytokine IL-8 produced by the cells were determined in the cell supernatants and/or cell lysates using the commercially available IL-8 ELISA detection kit (Duoset Human C×CL8/IL-8, ref. DY208) provided by R & D Systems (Minneapolis, Minn., USA) according to the instructions of the manufacturer. • All the cytokine levels were first normalized to the protein content determined in the corresponding cell lysates. Then, to compare the experiments, they could be further normalized using the activated control condition (DMSO+cytokines) as the 100% response.

E. coli K12 strain = assay: Bactericidal dosage on the E. coli K12 strain (absorbance at 600 nm); assay type: cell-based; conditions: all concentrations, maximum 100 μM shown; 18 h
Method: 1.1.4. Bactericidal Dosage • The K12 strain of E. coli was grown on agar on day 0 and a colony was transferred to the LYBHI liquid bacterial culture medium on day 1. On day 2, the colony was diluted 1:100 in LYBHI medium and amplified for 18 hours before transfer to an opaque 96-well plate. In each well, LYBHI, controls or increasing doses of tested molecules and bacteria were distributed. The absorbance at 600 nm was read at start-up (t=0) and after an 18-hour incubation. The raw absorbance values were corrected using the absorbance of solutions without bacteria. All experiments were performed twice, each with 4 replicates.
The E. coli K12 strain was cultured at D0 on agar gel, and then a selected colony was transferred to a liquid bacterial culture LYBHI medium at D1. At day 2, this colony was diluted 1:100 in LYBHI medium, and maintained for 18 hours for expansion before distribution in an opaque 96-well plate. In each well were distributed: LYBHI medium, bacterial culture, and test or control compounds. The absorbance of the wells was read at 600 nm at t0 and t18h. The raw absorbance values were corrected against the absorbance of the wells containing only LYBHI medium without bacteria or compounds.

SMILES | activity on IFN-γ/LPS-stimulated Raw 264.7 cells compared with natural 3-oxo-C12 HSL (Raw 264.7 murine cells; 10-50 μM range) | activity on IL-1β-stimulated Caco-2/TC7 cells compared with natural 3-oxo-C12 HSL (Caco-2/TC7 cells; 10-100 μM range) | comparative survival of E. coli K12 (E. coli K12 strain) | activity on IFN-γ/LPS-stimulated Raw 264.7 cells compared with natural 3-oxo-C12-HSL (Raw 264.7 murine cells) | activity on IL-1β-stimulated Caco-2/TC7 cells compared with natural 3-oxo-C12 HSL (Caco-2/TC7 cells; 1-50 μM range)
CCCCCCCCCC(=O)CC(=O)Nc1cc(Cl)ccc1O [I-6, N-(5-chloro-2-hydroxyphenyl)-3-oxododecanamide] | a significantly higher activity than that of the natural 3-oxo-C12 HSL | a significantly higher activity than that of the natural 3-oxo-C12 HSL | No significant differences | – | –
CCCCCCCCCC(=O)CC(=O)N[C@H]1CCCC[C@H]1O [I-4, N-[(1S,2R)-2-hydroxycyclohexyl]-3-oxo-dodecanamide] | – | – | No significant differences | a higher activity than the natural 3-oxo-C12 HSL | an activity equivalent to that of the natural 3-oxo-C12 HSL
CCCCCCCCCC(=O)CC(=O)N[C@H]1CCCC[C@@H]1O [I-2, N-[(1S,2S)-2-hydroxycyclohexyl]-3-oxo-dodecanamide] | – | – | No significant differences | more active than the reference molecule 3-oxo-C12-HSL | an activity equivalent to that of the natural 3-oxo-C12 HSL
